Key:
[1] = Apparent pKa of LNPs comprising the ionizable lipid (Table 6); conditions: standard formulation 50:10:38.5:1.5
[2] = Size distribution, polydispersity and Z-potential of LNPs by dynamic light scattering (Malvern Zetasizer); assay type: physicochemical; conditions: LNPs, standard formulation 50:10:38.5:1.5; DLS
Procedure: The LNP solution was then adjusted to a final concentration of mRNA of 100 µg/ml. Size distribution, polydispersity and Z-potential were measured by dynamic light scattering (DLS) using Malvern Zetasizer Advance Lab Blue Label. RNA encapsulation was assessed by Quant-IT® Ribogreen following the manufacturer's instructions.

[3] = RNA encapsulation efficiency of LNPs by Quant-IT Ribogreen; assay type: physicochemical; conditions: LNPs with luciferase mRNA; ionizable lipid:non-cationic lipid:sterol:PEG-modified lipid 50:10:38.5:1.5; percentage of RNA entrapped in the LNP
Procedure, shortened: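 Ribogreen dye assay per manufacturer quantified encapsulated mRNA. Particles were made by adding mRNA in water to the ethanol phase, then 1:1 Tris dilution and overnight dialysis into Tris/15% sucrose; final mRNA set to 100 µg/ml.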

| SMILES | Apparent pKa [1] | P.D.I. [2] | Particle size/ Ø (nm) [2] [nm] | Z Potential (± D.E.) [mV] [2] [mV] | Encaps. efficiency (%) [3] [%] |
| --- | --- | --- | --- | --- | --- |
| CCCCCCCCCCCCCCCCCC(=O)NC(CCSCCC(=O)OCC(CCCCCC)CCCCCCCC)C(=O)NC1CCN(C)CC1 (centres unmarked) [VC-LC-0433] | 7.75 | 0.13 | 180.8 | 4.87 | 96.77 |
| CCCCCCCC#CCOC(=O)CCSCCC(NC(=O)CCCCCCCCCCCCCCCCC)C(=O)NCCCN1CCOCC1 (centres unmarked) [VC-LC-0390] | 6.10 | 0.24 | 192.8 | -1.14 | 83.80 |
| CCCCCCCCCCCCCOC(=O)CCSCCC(C(=O)NCCCN1CCOCC1)C(=O)OCC(CCCCCC)CCCCCCCC (centres unmarked) [VC-LC-0605] | 5.68 | 0.24 | 136.3 | -11.79 | 52.30 |
| CCCCCCCCCCCCOC(=O)CCSCCC(C(=O)NCCCn1ccnc1)C(=O)OC(CCCCCCCC)CCCCCCCC (centres unmarked) [VC-LC-0366] | 6.33 | 0.16 | 122.6 | -13.24 | 89.18 |
| CCCCCCCCCCCCCCOC(=O)CCSCC(CC(=O)NCCCn1ccnc1)C(=O)OC(CCCCCCCC)CCCCCCCC (centres unmarked) [VC-LC-0299] | 6.09 | 0.15 | 193.3 | -13.45 | 57.64 |
| CCCCCCCCC(CCCCCC)COC(=O)C(CCSCCC(=O)OCC(CC)CCCC)C(=O)NCCCN1CCOCC1 (centres unmarked) [VC-LC-0608] | 5.88 | 0.20 | 179.2 | -11.14 | 50.40 |
| CCCCCCCCCCCCCCCCOC(=O)CCSCCC(C(=O)NC1CCN(C)CC1)C(=O)OC(CCCCCCCC)CCCCCCCC (centres unmarked) [VC-LC-0445] | 5.82 | – | – | -10.64 | 48.02 |
| CCCCCCCCC(CCCCCC)C(=O)NC(CCSCCC(=O)OCCCCCC(C)C)C(=O)NCC1CCN(C)CC1 (centres unmarked) [VC-LC-0498] | 7.47 | 0.15 | 152.3 | 1.06 | 99.46 |
| CCCCCCCCCCCCCOC(=O)CCSCCC(NC(=O)C(CCCCCC)CCCCCCCC)C(=O)NCCN(CC)CC (centres unmarked) [VC-LC-0473] | 6.73 | 0.085 | 134.0 | -7.78 | 43.07 |
| CCCCCCCCCCCCCCCCCC(=O)NC(CCSCCC(=O)OCCCCCCCCCCCC)C(=O)NC1CCN(C)CC1 (centres unmarked) [VC-LC-0434] | 5.72 | 0.2483 | 214.6 | 1.34 | 99.09 |
| CCCCCCCCCCCCC(CCCCCCCCCC)COC(=O)CCSCC(CC(=O)NC1CCN(C)CC1)C(=O)OCC(CCCCCC)CCCCCCCC (centres unmarked) [VC-LC-0537] | 5.23 | 0.14 | 165.1 | -8.81 | 69.42 |
| CCCCCCCCCCCCC(CCCCCCCCCC)COC(=O)CCSCCC(NC(=O)C(CCCCCC)CCCCCCCC)C(=O)NC1CCN(C)CC1 (centres unmarked) [VC-LC-0428] | 5.84 | 0.11 | 185.3 | -8.34 | 65.37 |
| CCCCCCCCC(CCCCCCCC)OC(=O)C(CCSCCC(=O)OCCCCCCCC(C)C)C(=O)NCCCn1ccnc1 (centres unmarked) [VC-LC-0364] | 6.38 | 0.13 | 116.8 | -14.33 | 78.29 |
| CCCCCCCCCCCCCCCCOC(=O)CCSCCC(C(=O)NCCCn1ccnc1)C(=O)OC(CCCCCCCC)CCCCCCCC (centres unmarked) [VC-LC-0369] | 6.02 | 0.15 | 137.6 | -10.72 | 92.05 |
| CCCCCCCC#CCOC(=O)CCSCC(CC(=O)NC1CCN(C)CC1)C(=O)OCC(CCCCCC)CCCCCCCC (centres unmarked) [VC-LC-0538] | 8.25 | 0.16 | 153.4 | 5.13 | 96.86 |
| CCCCCCCCC(CCCCCC)C(=O)NC(CCSCCC(=O)OCCCCCC)C(=O)NCCCn1ccnc1 (centres unmarked) [VC-LC-0268] | 6.18 | 0.14 | 173 | -10.85 | 29.52 |
| CCCC#CCCOC(=O)CCSCCC(NC(=O)C(CCCCCC)CCCCCCCC)C(=O)NC1CCN(C)CC1 (centres unmarked) [VC-LC-0432] | 6.44 | 0.29 | 126.9 | -16.42 | 46.27 |
| CCCCCCCCCCCCOC(=O)CCSCCC(NC(=O)C(CCCCCC)CCCCCCCC)C(=O)NCCN(CC)CC (centres unmarked) [VC-LC-0477] | 6.65 | 0.15 | 146.7 | -9.55 | 57.43 |
| CCCCCCCCCCCCCOC(=O)CCSCCC(NC(=O)C(CCCCCC)CCCCCCCC)C(=O)NCCCn1ccnc1 (centres unmarked) [VC-LC-0256] | 5.91 | 0.12 | 184.3 | -15.91 | 92.30 |
| CCCCCCCCC(CCCCCC)C(=O)NC(CCSCCC(=O)OCCCCCCC)C(=O)NCCCN(CCO)CCO (centres unmarked) [VC-LC-0207] | 7.18 | 0.2 | 185.7 | -0.83 | 93.61 |
| CCCCCCCCC(CCCCCC)COC(=O)CCSCCC(NC(=O)C(CCCCCC)CCCCCCCC)C(=O)NCCN(CC)CC (centres unmarked) [VC-LC-0474] | 5.61 | 0.21 | 153.2 | -7.69 | 66.27 |
| CCCCCCCC/C=C\CCCCCCCCOC(=O)CCSCCC(NC(=O)C(CCCCCCCC)CCCCCCCCCC)C(=O)NCCCN1CCOCC1 (centres unmarked) [VC-LC-0587] | 5.54 | 0.12 | 150.3 | -6.62 | 38.50 |
| CCCCCCCCCCC(CCCCCCCC)C(=O)NC(CCSCCC(=O)OCC(CC)CCCC)C(=O)NCC1CCN(C)CC1 (centres unmarked) [VC-LC-0510] | 7.39 | 0.15 | 144.9 | -2.73 | 97.61 |
| CCCCCCCCC(CCCCCCCC)OC(=O)C(CCSCCC(=O)OCC(CC)CCCC)C(=O)NCCCn1ccnc1 (centres unmarked) [VC-LC-0365] | 6.33 | 0.24 | 124.1 | -17.43 | 66.86 |
| CCCCCCCCC(CCCCCCCC)OC(=O)C(CSCCC(=O)OCC(CC)CCCC)CC(=O)NCCCN1CCOCC1 (centres unmarked) [VC-LC-0543] | 6.61 | 0.14 | 155.7 | -10.98 | 31.75 |
| CCCCCCCC#CCOC(=O)CCSCCC(NC(=O)C(CCCCCC)CCCCCCCC)C(=O)NCCN(CC)CC (centres unmarked) [VC-LC-0488] | 6.79 | 0.16 | 149.1 | -4.15 | 62.45 |

Reference: patent EP4371976B1, “IONIZABLE LIPIDS AND LIPID NANOPARTICLES CONTAINING THEREOF” (Certest Biotec, S.L., priority 2022, dated 2024)
